In paper PMC2120756 (The Journal of Cell Biology, 1996):

Target: NHE-1 (Na+/H+ exchanger isoform 1) (Homo sapiens, UniProt P19634)
Experiment: BCECF pHi recovery from NH4Cl acid load
Type: cell-based

NHE-1 (Na+/H+ exchanger isoform 1), sequence (P19634 whole entry, canonical isoform): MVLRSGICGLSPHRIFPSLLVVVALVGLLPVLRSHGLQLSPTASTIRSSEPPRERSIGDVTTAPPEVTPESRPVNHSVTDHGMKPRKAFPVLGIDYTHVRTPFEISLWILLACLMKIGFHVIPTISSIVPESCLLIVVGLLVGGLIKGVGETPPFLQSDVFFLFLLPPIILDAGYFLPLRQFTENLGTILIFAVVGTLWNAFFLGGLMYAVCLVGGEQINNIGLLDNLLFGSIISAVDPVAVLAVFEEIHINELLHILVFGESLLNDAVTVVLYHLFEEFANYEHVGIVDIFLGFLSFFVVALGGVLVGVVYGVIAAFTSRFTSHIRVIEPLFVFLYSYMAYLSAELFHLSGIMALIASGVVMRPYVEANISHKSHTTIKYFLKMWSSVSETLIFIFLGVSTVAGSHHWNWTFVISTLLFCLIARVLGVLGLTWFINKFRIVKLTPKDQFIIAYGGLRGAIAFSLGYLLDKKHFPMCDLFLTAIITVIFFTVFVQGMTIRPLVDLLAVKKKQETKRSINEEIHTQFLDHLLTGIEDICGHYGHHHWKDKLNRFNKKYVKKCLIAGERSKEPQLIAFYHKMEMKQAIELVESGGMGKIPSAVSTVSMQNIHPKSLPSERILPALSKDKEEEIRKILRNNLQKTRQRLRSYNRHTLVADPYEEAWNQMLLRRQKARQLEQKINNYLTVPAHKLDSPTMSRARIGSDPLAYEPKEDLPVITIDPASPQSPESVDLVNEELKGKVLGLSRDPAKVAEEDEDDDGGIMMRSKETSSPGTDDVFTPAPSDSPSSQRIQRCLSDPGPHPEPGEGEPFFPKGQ

IC50: ~10 nM
SMILES: CS(=O)(=O)c1cc(C(=O)N=C(N)N)ccc1N1CCCCC1 [HOE694]
